Patent publication US9901573B2, “Compositions, methods, and kits for regulating energy metabolism” (NuSirt Sciences, Inc., priority 2012, dated 2018)
Marks after values point to notes of the source that are not given here.

Legend:
Sirt1 = Sirt1 protein expression Western blot in myotubes; type: cell-based, mouse; details: C2C12 myotubes, FIG. 12
Procedure: (§1) Cell Culture: C2C12 and 3T3-L1 preadipocytes (American Type Culture Collection) were plated at a density of 8000 cells/cm^2 (10 cm^2 dish) and grown in Dulbecco's modified eagle's medium (DMEM) containing 10% fetal bovine serum (FBS), and antibiotics (growth medium) at 37° C. in 5% CO2. Confluent 3T3-L1 preadipocytes were induced to differentiate with a standard differentiation medium consisting of DMEM medium supplemented with 10% FBS, 250 nM dexamethasone, 0.5 mM 3-Isobutyl-1-methylxanthine (IBMX) and 1% penicillin-streptomycin. Preadipocytes were maintained in this differentiation medium for 3 days and subsequently cultured in growth medium. Cultures were re-fed every 2-3 days to allow >90% cells to reach fully differentiation before conducting chemical treatment. […]
Western blot: The Phospho-AMPKα (Thr172)- and Sirt1 (mouse specific)-antibody was obtained from Cell Signaling (Danvers, Mass.). […] Protein was measured by BCA kit (Thermo Scientific). […] Visualization and chemiluminescent detection was conducted using BioRad ChemiDoc instrumentation and software (Bio-Rad Laboratories, Hercules, Calif.) and band intensity was assessed using Image Lab 4.0 (Bio-Rad Laboratories, Hercules, Calif.), with correction for background and loading controls. P-AMPK was detected at 61-66 kDA and Sirt1 was detected at 104-115 kDA.

C2C12 myotubes = test: Glucose utilization (extracellular acidification) in myotubes; type: cell-based; details: FIG. 9
Procedure: as §1
Glucose Utilization: In the absence of a fatty acid source and oxidative metabolism, glycolysis and subsequent lactate production results in extracellular acidification, which was also measured using a Seahorse Bioscience XF24 analyzer. […] Data for each sample were normalized to the pre-glucose injection baseline for that sample and expressed as % change from that baseline. The area under of the curve of extracellular acidification change from baseline for each sample was the calculated and used for subsequent analysis.

3T3-L1 adipocytes = test: Intracellular Ca2+ by fura-2 imaging in adipocytes; type: cell-based
Procedure: Cell culture: 3T3-L1 pre-adipocytes were incubated at a density of 8000 cells/cm^2 (10 cm^2 dish) and grown in the absence of insulin in Dulbecco's modified Eagle's medium (DMEM) containing 10% FBS and antibiotics (1% penicillin-streptomycin)(adipocyte medium) at 37° C. in 5% CO2 in air. Confluent pre-adipocytes were induced to differentiate with a standard differentiation medium consisting of DMEM-F10 (1:1, vol/vol) medium supplemented with 1% fetal bovine serum (FBS), 250 nM dexamethasone (DEXA), isobutylmethylxanthine (IBMX) (0.5 mM) and antibiotics. Pre-adipocytes were maintained in this differentiation medium for 3 days (unless specifically indicated) and subsequently cultured in adipocyte medium. Cultures were re-fed every 2-3 days to allow 90% cells to reach fully differentiation before treatment.
Intracellular Ca^2+ ([Ca^2+]i): [Ca^2+]i was measured using a fura-2 dual wavelength fluorescence imaging system. Adipocytes were plated and differentiated in 35 mm dishes with glass coverslips (P35G-0-14-C, MatTek Corporation). Prior to [Ca^2+]i measurement, cells were preincubated in serum-free medium overnight and rinsed with Hepes Balanced Salt Solution (HBSS) containing the following components (in mM): NaCl 138, CaCl2 1.8, MgSO4 0.8, NaH2PO4 0.9, NaHCO3 4, glucose 5, glutamine 6, Hepes 20, and bovine serum albumin 1%. Cells were loaded with fura-2 acetoxymethyl ester (AM) (10 μM) in the same buffer for 2 hr at 37° C. in a dark incubator with 5% CO2. To remove extracellular dye, cells were rinsed with HBSS 3 times and then postincubated at room temperature for an additional 1 hr for complete hydrolysis of cytoplasmic fura-2 AM. The dishes with dye-loaded cells were mounted on the stage of Nikon TMS-F fluorescence inverted microscope with a Cohu 4915 CCD camera. Fluorescent images were captured alternatively at excitation wavelength of […] with an emission wavelength of 520 nm. [Ca^2]i was calculated using a standard ratio equation. Each analysis evaluated responses of 8-10 representative whole cells. Images were analyzed with InCytIm2 version 4.62 imaging software (Intracellular Imaging, Cincinnati, Ohio). Images were calibrated using a fura-2 calcium imaging calibration kit (Molecular Probes, Eugene, Oreg.) to create a calibration curve in solution, and cellular calibration was accomplished using digitonin (25 μM) and pH 8.7 Tris-EGTA (100 mM) to measure maximal and minimal [Ca^2+]i levels.

SMILES: CC(C)C[C@H](N)C(=O)O [Leucine, leucine]
- Sirt1 protein levels, increase (Sirt1): unaffected
- increase in glucose utilization (C2C12 myotubes): no independent significant effect
- Intracellular Ca2+ (3T3-L1 adipocytes; Leucine 0.25 mM): 75.2^b ± nM
- Intracellular Ca2+ (3T3-L1 adipocytes; Leucine 0.5 mM): 83.7^b ± nM
